From patent US20230257354A1, “NOVEL HETEROCYCLIC COMPOUNDS” (Hoffmann-La Roche Inc., priority 2020, published 2023) come the findings set out here.

In the assay the test system is Acinetobacter baumannii ATCC17978. The assay can be described thus: Antimicrobial susceptibility testing, 90% growth inhibitory concentration (IC90) determination, ATCC17978. It is filed as cell-based. The following applies: Iso-Sensitest broth, OD 600 nm over 16 h, 35±2° C., read-out: ATCC 17978 IC90. Here is the method:
Antimicrobial Susceptibility Testing: 90% Growth Inhibitory Concentration (IC90) Determination The in vitro antimicrobial activity of the compounds was determined according to the following procedure: The assay used a 10-points Iso-Sensitest broth medium to measure quantitatively the in vitro activity of the compounds against Acinetobacter baumannii ATCC17978 or ATCC17961. Stock compounds in DMSO were serially twofold diluted (e.g. range from 50 to 0.097 μM final concentration) in 384 wells microtiter plates and inoculated with 49 μl the bacterial suspension in Iso-Sensitest medium to have a final cell concentration of ˜5×10^(5) CFU/ml in a final volume/well of 50 ul/well. Microtiter plates were incubated at 35±2° C. Bacterial cell growth was determined with the measurement of optical density at X=600 nm each 20 minutes over a time course of 16 h. Growth inhibition was calculated during the logarithmic growth of the bacterial cells with determination of the concentration inhibiting 50% (IC50) and 90% (IC90) of the growth. Table 1 provides the 90% growth inhibitory concentrations (IC90) in micromoles per liter of the compounds of present invention obtained against the strain Acinetobacter baumannii ATCC17978.
For the compound `Cn1c(-c2ccc(OCC#N)c(F)c2F)cnc1C(=O)Nc1ccc(C(=O)NCCCN2CCNCC2)c(Cl)c1` [Example A11, N-[3-chloro-4-(3-piperazin-1-ylpropylcarbamoyl)phenyl]-5-[4-(cyanomethoxy)-2,3-difluoro-phenyl]-1-methyl-imidazole-2-carboxamide;2,2,2-trifluoroacetic acid], the 90% effect concentration (IC90) worked out at 310 nM.
Regarding `Cc1cc(NC(=O)c2ncc(-c3ccc(OCC#N)c(F)c3F)n2C)ccc1C(=O)NCCNC(=O)[C@H]1C[C@@](C)(O)CN1` [Example B24, 5-[4-(cyanomethoxy)-2,3-difluoro-phenyl]-N-[4-[2-[[(2R,4R)-4-hydroxy-4-methyl-pyrrolidine-2-carbonyl]amino]ethylcarbamoyl]-3-methyl-phenyl]-1-methyl-imidazole-2-carboxamide;formic acid], the concentration for an effect of 90% (IC90) was found to be 1000 nM.
Turning to `CC[C@]1(O)CN[C@@H](C(=O)NCCNC(=O)c2ccc(NC(=O)c3ncc(-c4ccc(OCC#N)c(F)c4F)n3C)cc2Cl)C1` [Example B37, N-[3-chloro-4-[2-[[(2R,4R)-4-ethyl-4-hydroxy-pyrrolidine-2-carbonyl]amino]ethylcarbamoyl]phenyl]-5-[4-(cyanomethoxy)-2,3-difluoro-phenyl]-1-methyl-imidazole-2-carboxamide;formic acid], the IC90 is 850 nM.
`CC[C@]1(O)CN[C@@H](C(=O)NCCNC(=O)c2ccc(NC(=O)c3ncc(-c4ccc(OCC#N)c(F)c4F)n3C)cc2C)C1` [Example B25, 5-[4-(cyanomethoxy)-2,3-difluoro-phenyl]-N-[4-[2-[[(2R,4R)-4-ethyl-4-hydroxy-pyrrolidine-2-carbonyl]amino]ethylcarbamoyl]-3-methyl-phenyl]-1-methyl-imidazole-2-carboxamide;formic acid]: the IC90 worked out at 870 nM.
Consider `Cn1c(-c2ccc(OCC#N)c(F)c2F)cnc1C(=O)Nc1ccc(C(=O)NCCNC(=O)C2(O)CCNCC2)c(Cl)c1` [Example B16, N-[2-[[2-chloro-4-[[5-[4-(cyanomethoxy)-2,3-difluoro-phenyl]-1-methyl-imidazole-2-carbonyl]amino]benzoyl]amino]ethyl]-4-hydroxy-piperidine-4-carboxamide;2,2,2-trifluoroacetic acid], for which the IC90 came out at 350 nM.
In the case of `COc1ccc(-c2cnc(C(=O)Nc3ccc(C(=O)N[C@H]4C[C@@H](NC(=O)[C@H]5CCNC[C@H]5O)C4)c(Cl)c3)n2C)c(F)c1F` [Example B42, (3S,4S)-N-[3-[[2-chloro-4-[[5-(2,3-difluoro-4-methoxy-phenyl)-1-methyl-imidazole-2-carbonyl]amino]benzoyl]amino]cyclobutyl]-3-hydroxy-piperidine-4-carboxamide;formic acid], the IC90 was determined as 73 nM.
The value for `COc1ccc(-c2cnc(C(=O)Nc3ccc(C(=O)NCCNC(=O)CN(C)C)c(Cl)c3)n2C)c(F)c1F` [Example A24, N-[3-chloro-4-[2-[[2-(dimethylamino)acetyl]amino]ethylcarbamoyl]phenyl]-5-(2,3-difluoro-4-methoxy-phenyl)-1-methyl-imidazole-2-carboxamide;2,2,2-trifluoroacetic acid] was 670 nM; that for `COc1ccc(-c2cnc(C(=O)Nc3ccc(C(=O)N[C@H]4C[C@@H](NC(=O)C5CCNCC5)C4)c(Cl)c3)n2C)c(F)c1F` [Example B39, N-[3-[[2-chloro-4-[[5-(2,3-difluoro-4-methoxy-phenyl)-1-methyl-imidazole-2-carbonyl]amino]benzoyl]amino]cyclobutyl]piperidine-4-carboxamide;formic acid] was 57 nM.
For the compound `COc1ccc(-c2cnc(C(=O)Nc3ccc(C(=O)NCC4CC(N)C4)c(Cl)c3)n2C)c(F)c1F` (stereo not drawn) [Example A8, N-[4-[(3-aminocyclobutyl)methylcarbamoyl]-3-chloro-phenyl]-5-(2,3-difluoro-4-methoxy-phenyl)-1-methyl-imidazole-2-carboxamide;formic acid], the concentration for an effect of 90% (IC90) is 500 nM.
